Source: patent US10016515B2, “DMA, a bis-benzimidazole, confers radioprotection to the intestine via Akt/NFκB dual pathway activation” (Jawaharlal Nehru University, priority 2016, dated 2018)
Read-outs that look alike come from different tables or passages of the source.

Assay: Tissue bio-distribution and tissue pharmacokinetics of DMA
Type: in vivo, mouse
Experimental: Tissue samples were collected from the same mice from which blood samples were collected in both doses of DMA. Lung, liver, kidney, intestine, heart, spleen, brain were dissected and rinsed with phosphate buffer saline (PBS) and dried on blotting paper. 100 mg of tissue sample was homogenized for 20 s in chilled acetronitrile and water and further 700 μl chilled acetronitrile was added. The sample was centrifuged at 14000 rpm for 10 min and clear supernatant was collected for analysis on HPLC-MS/MS system.
A standard DMA calibration from 1-1000 ng/ml with internal standard (20 ng/ml) was quantified. Sample analysis was performed on positive ionization mode LC-MS/MS with multiple reactions monitoring (MRM, m/z Q1/Q3) of DMA (m/z 235.1/412.0, retention time (RT) 5.3 min) and internal standard (m/z 227.1/396.0, RT 6.5 min) (Agilent 6410 series). A gradient method was employed to analyze the plasma samples using mobile phase A (0.1% formic acid in water) and mobile phase B (methanol). The B % was set as 30 (0 min), 90 (10-14 min), 30 (14-24 min) with flow rate of 0.3 ml/min. An injection volume of 10 μl was used for analysis.
Peak tissue concentration (Cmax) of DMA and time to reach the Cmax (tmax) were read directly from the raw data by visual examination of mean tissue concentration-time profile. The tissue concentration-time data following oral dose were subjected to one-, two- and three-compartmental models using WinNonlin program (version 6.3; Certara Inc, Missouri, USA) to calculate the pharmacokinetic parameters. The pharmacokinetic models were compared according to maximal correlation between observed and predicted concentration, minimal sum of squared residuals, Akaike Information Criterion (AIC) and Schwarz Bayesian Criterion (SBC). However, the tissue concentration-time data following intravenous administration were subjected to non-compartmental approach.

[1] = Balb/c, mouse, intestine, iv, i.v. 50 mg/kg, read-out: Tissue DMA concentration, Intestine
[2] = Balb/c, mouse, intestine, Oral 100 mg/kg, read-out: Tissue DMA concentration, Intestine
[3] = Balb/c, mouse, kidney, iv, i.v. 50 mg/kg, read-out: Tissue DMA concentration, Kidney

Compound: COc1ccc(-c2nc3cc(-c4nc5cc(N6CCN(C)CC6)ccc5[nH]4)ccc3[nH]2)cc1OC [DMA, 5-(4-methylpiperazin-1-yl)-2-[2′-(3,4-dimethoxyphenyl)-5′-benzimidazolyl]benzimidazole]
- Concentration achieved in intestine (50 mg/kg i.v.): 1260 µg/g
- Small intestine concentration, i.v. as compared to oral route (50 mg/kg i.v. vs 100 mg/kg oral): 11.88 fold
- AUC, Kidney (50 mg/kg intravenous): 945577.2 ng·h/g
- AUC, Liver (50 mg/kg intravenous): 889040 ng·h/g
- AUC, Lung (50 mg/kg intravenous): 2674622.2 ng·h/g
- AUC, Small Intestine (50 mg/kg intravenous): 220072.6 ng·h/g
- AUC, Spleen (50 mg/kg intravenous): 145191 ng·h/g
- C1 hr, Kidney (50 mg/kg intravenous): 14900 ng/g
- C1 hr, Liver (50 mg/kg intravenous): 41600 ng/g
- C1 hr, Lung (50 mg/kg intravenous): 109000 ng/g
- C1 hr, Small Intestine (50 mg/kg intravenous): 1260000 ng/g
- Clearance, Kidney (50 mg/kg intravenous): 17.9 g/h/kg
- Clearance, Liver (50 mg/kg intravenous): 39.5 g/h/kg
- Clearance, Small Intestine (50 mg/kg intravenous): 15.0 g/h/kg
- Clearance, Spleen (50 mg/kg intravenous): 89.3 g/h/kg
- Vd, Kidney (50 mg/kg intravenous): 1944.8 g/kg
- Vd, Liver (50 mg/kg intravenous): 668.7 g/kg
- Vd, Lung (50 mg/kg intravenous): 552.1 g/kg
- Vd, Small Intestine (50 mg/kg intravenous): 40360.3 g/kg
- Vd, Spleen (50 mg/kg intravenous): 3857.9 g/kg
- Vss, Kidney (50 mg/kg intravenous): 1623.5 g/kg
- Vss, Liver (50 mg/kg intravenous): 496.11 g/kg
- Vss, Lung (50 mg/kg intravenous): 10.72 g/kg
- Vss, Small Intestine (50 mg/kg intravenous): 4.9 g/kg
- Vss, Spleen (50 mg/kg intravenous): 4114.6 g/kg
- AUC, Kidney (100 mg/kg oral dose): 10874.29 ng·h/g
- AUC, Liver (100 mg/kg oral dose): 20717.3 ng·h/g
- AUC, Small Intestine (100 mg/kg oral dose): 361353.4 ng·h/g
- AUC, Spleen (100 mg/kg oral dose): 8353.819 ng·h/g
- Cl/F, Kidney (100 mg/kg oral dose): 9190 g/h/kg
- Cl/F, Liver (100 mg/kg oral dose): 4000 g/h/kg
- Cl/F, Small Intestine (100 mg/kg oral dose): 277 g/h/kg
- Cl/F, Spleen (100 mg/kg oral dose): 11000 g/h/kg
- Cmax, Kidney (100 mg/kg oral dose): 1530 ng/g
- Cmax, Liver (100 mg/kg oral dose): 2230 ng/g
- Maximum concentration in small intestine (100 mg/kg oral, at 2 h): 106 µg/g
- Maximum concentration in spleen (100 mg/kg oral, at 2 h): 1.31 µg/g
- Maximum concentration in kidney (100 mg/kg oral, at 4 h): 1.53 µg/g
- Maximum concentration in liver (100 mg/kg oral, at 4 h): 2.23 µg/g
- concentration at 2 h [1]: 70400 ng/g
- concentration at 4 h [1]: 59200 ng/g
- concentration at 6 h [1]: 29700 ng/g
- concentration at 16 h [1]: 2530 ng/g
- concentration at 24 h [1]: 1710 ng/g
- concentration at 1 h (Balb/c, mouse, intestine, Oral 100 mg/kg, 1 h, read-out: Tissue DMA concentration, Intestine): 675 ng/g
- concentration at 2 h [2]: 106000 ng/g
- concentration at 4 h [2]: 30200 ng/g
- concentration at 6 h [2]: 28700 ng/g
- concentration at 16 h [2]: 612 ng/g
- concentration at 24 h [2]: 410 ng/g
- concentration at 1 h (Balb/c, mouse, kidney, intravenous, 50 mg/kg i.v., read-out: Concentration achieved in kidney): 14900 ng/g
- concentration at 1 h (Balb/c, mouse, kidney, iv, i.v. 50 mg/kg, 1 h, read-out: Tissue DMA concentration, Kidney): 14900 ng/g
- concentration at 2 h [3]: 8370 ng/g
- concentration at 4 h [3]: 9080 ng/g
- concentration at 6 h [3]: 707 ng/g
- concentration at 16 h [3]: 263 ng/g
- half-life (Balb/c, mouse, kidney, 100 mg/kg oral dose, read-out: Half life, Kidney (converted)): 2.5 h
- Tmax (Balb/c, mouse, kidney, 100 mg/kg oral dose, read-out: Tmax, Kidney): 4 h
- concentration at 1 h (Balb/c, mouse, kidney, Oral 100 mg/kg, 1 h, read-out: Tissue DMA concentration, Kidney): 342 ng/g
- concentration at 2 h (Balb/c, mouse, kidney, Oral 100 mg/kg, read-out: Tissue DMA concentration, Kidney): 1020 ng/g
